{"source": "patent US20240124409A1", "about": "“GUAIANOLIDE SESQUITERPENE LACTONE DERIVATIVES AND PHARMACEUTICAL USE THEREOF” (NANJING UNIVERSITY OF CHINESE MEDICINE, priority 2021, published 2024)", "key": {"[1]": {"test": "Stability in artificial gastric juice environment (HPLC)", "details": "37° C.", "description": "The samples were dissolved in 500 μL of chromatographic methanol, into which were added 1500 μL of artificial gastric juice, mixed well and then dissolved completely by ultrasound. 50 μL of the above solutions were aspirated precisely, diluted by adding 200 μL of chromatographic methanol, filtered and analyzed by HPLC, wherein the HPLC analysis conditions were mobile phase: 65% methanol -35% water, flow rate: 0.8 mL/min, and column temperature: 25° C., and the initial peak areas were recorded. The above solutions were placed on a constant temperature water bath at 37° C., sampled at 8 h, 16 h and 24 h respectively, and analyzed by HPLC. By calculating the peak areas respectively, the stability data of the corresponding samples in artificial gastric juice environment at 8 h, 16 h and 24 h can be obtained."}, "Hepa1-6 cells": {"test_system": "Hepa1-6 cells", "test": "Hepa1-6 subcutaneous mouse xenograft model", "format": "in vivo, C57BL/6 mice", "details": "2 weeks", "protocol": "(§1) Hepa1-6 cells were cultured and amplified in vitro. Appropriate amount of the cells in logarithmic growth phase were resuspended in a suspension of a serum-free DMEM medium and Matrigel (1:1) to prepare a cell suspension in 2.5×10^6/100 μL under sterile conditions. 100 μL of the cell suspension was subcutaneously inoculated into the armpits of the front left limbs of C57BL/6 mice with a syringe. When the tumor volume grew to 100-200 mm^3, animals with moderate tumor size were randomly divided into groups, with 6 animals in each group. […] The mice were administered intragastrically every day for 2 weeks. During the administration, the weights and tumor diameters of the mice were measured every day. After the experiment, the mice were sacrificed by cervical dislocation, and the tumors were taken and weighed. The formula for calculating a tumor volume (TV) is: TV=½×a×b^2, where a represents the long diameter of a tumor; b represents the short diameter of a tumor."}, "H22 cells": {"test_system": "H22 cells", "test": "H22 subcutaneous mouse xenograft model, tumor growth", "format": "in vivo, BALB/c mice", "details": "2 weeks", "protocol": "as §1, with “H22” for “Hepa1-6”, “RPMI 1640” for “DMEM”, “3×105/100” for “2.5×10^6/100”, “BALB/c” for “C57BL/6”"}, "MDSCs and T cells": {"test_system": "MDSCs and T cells", "test": "H22 xenograft model, flow cytometry of MDSCs and T cells in tumor and spleen", "format": "in vivo, BALB/c mice", "protocol": "as §1, with “H22” for “Hepa1-6”, “RPMI 1640” for “DMEM”, “3×105/100” for “2.5×10^6/100”, “BALB/c” for “C57BL/6”\nThe tumor-bearing mice were sacrificed by the cervical dislocation method, placed in a beaker containing 75% alcohol, and the tumors of the mice were peeled off. The tumors were first soaked in a sterile petri dish containing RPMI 1640. After all the tumors were peeled off, fingernail sized tumor was cut off and transferred to a 1.5 mL EP tube. The tumors were cut into small pieces, and transferred into a 15 mL centrifuge tube containing 3-5 mL of digestive enzymes (Collagenase IV 1 mg/mL, Hyaluronidase 1 mg/mL, and DNase I 20 U/mL), and digested in a shaker at 200 rpm and 37° C. for 1 h. After digestion, the mixture was allowed to pass through a 200-mesh screen to obtain the suspension of the tumor cells. The resulting tumor suspension was centrifuged at 1600 rpm for 5 min. The supernatant was aspirated away. 1 mL of 1×PBS was added into each tube to resuspend the cells. The cell suspension was transferred into a 1.5 mL EP tube, and centrifuged at 1600 rpm for 5 min. The supernatant was removed. 100 μL of 1×PBS was used in each tube to resuspend the cells respectively. Then 1 μL of a viability dye was added. The mixture was incubated at room temperature in the dark for 15 min after being mixed well. At the same time, the spleen was taken out with a tweezer, placed into a sterile petri dish containing 5 mL of the RPMI 1640 medium, and positioned on a 200-mesh cell screen. The spleen was gently ground with the needle core of a 10 mL syringe. A small amount of the RPMI 1640 medium was aspirated to rinse the cell screen. The spleen cell suspension was rinsed into a 15 mL centrifuge tube, and centrifuged at 1600 rpm for 5 min to collect cells. The cells were washed once with 1×PBS. 3 mL of an erythrocyte lysate (diluted with ddH2O) was added to each tube to lyse for 5 min. After lysing, 10 mL of 1×PBS was added to each tube to stop lysing. The mixture was centrifuged at 1600 rpm for 5 min. 1 mL of 1×PBS was added to each 15 mL centrifuge tube. The mixture was transferred to a 1.5 mL EP tube, and centrifuged at 1600 rpm for 5 min. 1 mL of 1×PBS was added to each tube of the stained tumor cells and lysed spleen cells respectively to wash once. The mixture was centrifuged at 1600 rpm for 5 min, and the supernatant was removed. 100 μL of 1×PBS was used to resuspend the tumor cells and spleen cells respectively. 1 μL of the FcX™ antibody was then added to each tube. The mixture was incubated at room temperature in the dark for 10 min. After the incubation, 1 μL of each of the CD45, CD11b and Gr1 antibodies was added to each tube sequentially. The mixture was incubated at 4° C. in the dark for 30 min, and washed once with 1×PBS after the incubation. The supernatant was discarded. 300 μL of 1×PBS was used to resuspend the cells. The mixture was filtered through a filter membrane into a flow tube, and detected on a machine."}, "CT26 cells": {"test_system": "CT26 cells", "test": "CT26 subcutaneous mouse xenograft model", "format": "in vivo, C57BL/6 mice", "details": "3 weeks", "protocol": "CT26 cells were cultured and amplified in vitro. Appropriate amount of the cells in logarithmic growth phase were resuspended in a suspension of a serum-free RPMI 1640 medium and Matrigel (1:1) to prepare a cell suspension in 5×10^5/100 μL under sterile conditions. 100 μL of the cell suspension was subcutaneously inoculated into the armpits of the front left limbs of male C57BL/6 mice with a syringe. When the tumor volume grew to 50-70 mm^3, animals with moderate tumor size were randomly divided into groups, with 5 animals in each group. […] The mice were administered intragastrically every day for 3 weeks. During the administration, the weights and tumor diameters of the mice were measured every day. After the experiment, the mice were sacrificed by cervical dislocation, and the tumors were taken and weighed. The formula for calculating a tumor volume (TV) is: TV=½×a×b2, where a represents the long diameter of a tumor; b represents the short diameter of a tumor."}}, "note": "Marks after values point to notes of the source that are not given here.", "data": [{"smiles": "C=C1C(=O)O[C@@H]2[C@@H]3[C@]4(CC[C@@]3(C)O)C[C@]4(C)CC[C@@H]12", "note": "[Compound 1]", "values": [{"measurement": "Non-degradation percentage at 8 h", "setting": "[1]", "value": 99.08, "unit": "%"}, {"measurement": "Non-degradation percentage at 16 h", "setting": "[1]", "value": 98.76, "unit": "%"}, {"measurement": "Non-degradation percentage at 24 h", "setting": "[1]", "value": 98.16, "unit": "%"}]}, {"smiles": "CN(C)C[C@@H]1C(=O)O[C@H]2[C@H]1CC[C@@]1(C)C[C@]13CC[C@@](C)(O)[C@H]23", "note": "[Compound 23]", "values": [{"measurement": "Tumor growth inhibition", "setting": "Hepa1-6 cells; 8.43 mg/kg/d i.g.", "value": 96.78, "unit": "%***"}, {"measurement": "Tumor weight", "setting": "Hepa1-6 cells; 8.43 mg/kg/d i.g.", "value": 0.03, "unit": "g"}, {"measurement": "Tumor growth inhibition", "setting": "H22 cells; 8.43 mg/kg/d i.g.", "value": 42.92, "unit": "%"}, {"measurement": "Tumor weight", "setting": "H22 cells; 8.43 mg/kg/d i.g.", "value": 4.88, "unit": "g"}, {"measurement": "MDSCs in Spleen", "setting": "MDSCs and T cells; 8.43 mg/kg/d", "value": 23.10, "unit": "%"}, {"measurement": "MDSCs in tumor", "setting": "MDSCs and T cells; 8.43 mg/kg/d", "value": 7.86, "unit": "%"}, {"measurement": "T Cells in Spleen", "setting": "MDSCs and T cells; 8.43 mg/kg/d", "value": 37.19, "unit": "%"}, {"measurement": "T Cells in tumor", "setting": "MDSCs and T cells; 8.43 mg/kg/d", "value": 29.44, "unit": "%"}, {"measurement": "Tumor growth inhibition", "setting": "CT26 cells; 16.86 mg/kg/d i.g.", "value": 43.36, "unit": "%"}, {"measurement": "Tumor weight", "setting": "CT26 cells; 16.86 mg/kg/d i.g.", "value": 4.62, "unit": "g"}]}, {"smiles": "C=C1C(=O)O[C@@H]2[C@H]3C(C)=CC[C@@]34O[C@@]4(C)CC[C@@H]12", "note": "[arglabin, reference compound]", "values": [{"measurement": "Tumor growth inhibition", "setting": "Hepa1-6 cells; 10 mg/kg/d i.g.", "value": 95.86, "unit": "%***"}, {"measurement": "Tumor weight", "setting": "Hepa1-6 cells; 10 mg/kg/d i.g.", "value": 0.04, "unit": "g"}, {"measurement": "Tumor growth inhibition", "setting": "H22 cells; 10 mg/kg/d i.g.", "value": 39.43, "unit": "%"}, {"measurement": "Tumor weight", "setting": "H22 cells; 10 mg/kg/d i.g.", "value": 5.18, "unit": "g"}, {"measurement": "Non-degradation percentage at 8 h", "setting": "[1]", "value": 50.14, "unit": "%"}, {"measurement": "Non-degradation percentage at 16 h", "setting": "[1]", "value": 48.70, "unit": "%"}, {"measurement": "Non-degradation percentage at 24 h", "setting": "[1]", "value": 43.40, "unit": "%"}, {"measurement": "MDSCs in Spleen", "setting": "MDSCs and T cells; 10 mg/kg/d", "value": 27.89, "unit": "%"}, {"measurement": "MDSCs in tumor", "setting": "MDSCs and T cells; 10 mg/kg/d", "value": 27.0, "unit": "%"}, {"measurement": "T Cells in Spleen", "setting": "MDSCs and T cells; 10 mg/kg/d", "value": 27.02, "unit": "%"}, {"measurement": "T Cells in tumor", "setting": "MDSCs and T cells; 10 mg/kg/d", "value": 17.72, "unit": "%"}, {"measurement": "Tumor growth inhibition", "setting": "CT26 cells; 20 mg/kg/d i.g.", "value": 34.94, "unit": "%"}, {"measurement": "Tumor weight", "setting": "CT26 cells; 20 mg/kg/d i.g.", "value": 5.31, "unit": "g"}]}]}
